The values that follow come from US11479563B2, “Biphenyl compound or salt thereof” (TAIHO PHARMACEUTICAL CO., LTD., priority 2017, dated 2022).

Counter-ions that a name gives are not always drawn.

Assay [1] has as its system NCI-H146 cells (human small-cell lung cancer cell lines). Description: Cell-growth inhibition test: NCI-H146 cells. As to conditions: Homo sapiens, NCI-H146, read-out: Cell-Growth Inhibition Test: NCI-H146 Cells IC50 (nM). The format is cell-based. The protocol:
Under the following conditions, an in vitro cell-growth inhibition test was performed with respect to HEL cells (human acute myelocytic leukemia cell lines), NCI-H1417 cells (human small-cell lung cancer cell lines), and NCI-H146 cells (human small-cell lung cancer cell lines).
The cells with the compound of the present invention or with dimethylsulfoxide alone were cultured at 37° C. in a 5% carbon-dioxide-containing incubator for 5 days (HEL cells) or 10 days (NCI-H1417 cells and NCI-H146 cells). After culture, the plate was allowed to stand at room temperature for 30 minutes, and 100 μL of the supernatant was removed from each well to leave 100 μL of the cell culture solution. To each well containing the remaining 100 μL of the cell culture solution, the same amount of CellTiter-Glo 2.0 Assay (Promega, Cat #: G9242) was added. The microplate was shaken with a plate mixer for 1 minute and then allowed to stand in a dark place for 10 minutes. Thereafter, the luminescence intensity of viable cells in each well was measured using a microplate reader (PerkinElmer, EnSpire). […] Cell growth rate (%)=T/C×100 T: The luminescence intensity in a well to which the compound of the present invention was added (count per second) C: The luminescence intensity in a well to which dimethylsulfoxide alone was added (count per second)

The subject of assay [2] is HEL cells (human acute myelocytic leukemia cell lines). Description: cells. As to conditions: read-out: Cell-Growth Inhibition Test: HEL Cells IC50 (nM).
Assay [3] has as its system NCI-H1417 cells (human small-cell lung cancer cell lines). Description: cells. The settings on record: NCI-H1417, read-out: Cell-Growth Inhibition Test: NCI-H1417 Cells IC50 (nM).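 Also: growth of NCI-H1417 cells over 10 days at 37 °C, read as viable-cell luminescence by CellTiter-Glo 2.0, expressed as % of DMSO-only control wells.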

For the compound `CCC(O)(CC)Cn1nnc2cc(-c3ccc(CN4C5CCC4C(N)C5)cc3-c3ccc(C#N)c(F)c3)c(F)c(Br)c21` [Example 295, 5′-(((1S,2S,4R)-rel-2-amino-7-azabicyclo[2.2.1]heptan-7-yl)methyl)-2′-(7-bromo-1-(2-ethyl-2-hydroxybutyl)-6-fluoro-1H-benzo[d][1,2,3]triazol-5-yl)-3-fluoro-[1,1′-biphenyl]-4-carbonitrile-isomer-X dihydrochloride], the IC50 in assay [1] was determined as 0.24 nM; in assay [2], 0.049 nM; in assay [3], 0.066 nM.

As to `CC(C)(O)Cn1nnc2cc(-c3ccc(C(=O)N4C5CCC4C(N)C5)cc3-c3ccc(C#N)c(F)c3)c(F)c(C#N)c21` [Example 247, 5-(5-((1S,2S,4R)-rel-2-amino-7-azabicyclo[2.2.1]heptane-7-carbonyl)-4′-cyano-3′-fluoro-[1,1′-biphenyl]-2-yl)-6-fluoro-1-(2-hydroxy-2-methylpropyl)-1H-benzo[d][1,2,3]triazole-7-carbonitrile-isomer-X], the IC50 was determined as 3.84 nM in assay [1], 3.02 nM in assay [2] and 1.4 nM in assay [3].

On to `Cc1ccc(-c2ccc(C(C)N3C4CCC3C(N)C4)cc2-c2ccc(C#N)c(F)c2)c(F)c1` [Example 292, 5′-(1-((1S,2S,4R)-rel-2-amino-7-azabicyclo[2.2.1]heptan-7-yl)ethyl)-2″,3-difluoro-4″-methyl-[1,1′:2′,1″-terphenyl]-4-carbonitrile-isomer-X dihydrochloride], for which the IC50 in assay [1] worked out at 10.3 nM; in assay [2], 0.91 nM; in assay [3], 3.29 nM.

`Cc1c(F)c(-c2ccc(C(=O)N3[C@@H]4CC[C@H]3C[C@@H](N)C4)cc2-c2ccc(C#N)c(F)c2)cc2nnn(CC3(O)CCC3)c12` [Example 272, 5′-((3-endo)-3-amino-8-azabicyclo[3.2.1]octane-8-carbonyl)-3-fluoro-2′-(6-fluoro-1-((1-hydroxycyclobutyl)methyl)-7-methyl-1H-benzo[d][1,2,3]triazol-5-yl)-[1,1′-biphenyl]-4-carbonitrile]: the values for the IC50 in assay [1], in assay [2] and in assay [3] were 3.17 nM, 1.52 nM and 0.81 nM, respectively.

Consider `CC(C)(O)Cn1nnc2cc(-c3ccc(C(=O)N4[C@@H]5CC[C@H]4C[C@@H](N)C5)cc3-c3ccc(C#N)c(F)c3)c(F)c(C#N)c21` [Example 251, 5-(5-((3-endo)-3-amino-8-azabicyclo[3.2.1]octane-8-carbonyl)-4′-cyano-3′-fluoro-[1,1′-biphenyl]-2-yl)-6-fluoro-1-(2-hydroxy-2-methylpropyl)-1H-benzo[d][1,2,3]triazole-7-carbonitrile], for which the 50% inhibitory concentration (IC50) in assay [1] is 13.2 nM; in assay [2] it was 23.9 nM; in assay [3], 2.7 nM.

On to `CCC(O)(CC)Cn1nnc2cc(-c3ccc(C(=O)N4[C@@H]5CC[C@H]4C[C@@H](N)C5)cc3-c3ccc(C#N)c(F)c3)c(F)c(Cl)c21` [Example 220, 5′-((3-endo)-3-amino-8-azabicyclo[3.2.1]octane-8-carbonyl)-2′-(7-chloro-1-(2-ethyl-2-hydroxybutyl)-6-fluoro-1H-benzo[d][1,2,3]triazol-5-yl)-3-fluoro-[1,1′-biphenyl]-4-carbonitrile], for which the IC50 stood at 1.81 nM in assay [1], 1.09 nM in assay [2] and 1.03 nM in assay [3].

On to `COCCc1ccc(-c2ccc(C(=O)N3[C@@H]4CC[C@H]3C[C@@H](N)C4)cc2-c2ccc(C#N)c(F)c2)c(F)c1` [Example 22], for which the values for the IC50 in assay [1], in assay [2] and in assay [3] were 15 nM, 3.51 nM and 8.2 nM, respectively.

Consider `Cc1nn(CC(C)(C)O)c2cc(F)c(-c3ccc(C(=O)N4[C@@H]5CC[C@H]4C[C@@H](N)C5)cc3-c3ccc(C#N)c(F)c3)cc12` [Example 181, 5′-((3-endo)-3-amino-8-azabicyclo[3.2.1]octane-8-carbonyl)-3-fluoro-2′-(6-fluoro-1-(2-hydroxy-2-methylpropyl)-3-methyl-1H-indazol-5-yl)-[1,1′-biphenyl]-4-carbonitrile], for which the results for the IC50 in assay [1], in assay [2] and in assay [3] were 2.93 nM, 9.06 nM and 4.6 nM, respectively.

By IC50 is commonly meant the point on the concentration scale where inhibition reaches its midpoint.
